Results on nine compounds are retold here after paper PMC9032695, “Self-Assembled Alkylated Polyamine Analogs as Supramolecular Anticancer Agents” (Molecules, 2022).

“And” between values parts separate entries of the source, which are not always exact repeats. Identical values can stand only once. Like-named read-outs stand apart in the source and are kept apart here.

As usually defined, the IC50 is the midpoint of a concentration-inhibition curve.

Data set [1] in a line: Hydrodynamic size and zeta potential of self-assembled nanoparticles (DLS). Format: physicochemical. The following applies: self-assembled in aqueous solution; for PDI: DLS; for Particle Size: hydrodynamic size by DLS. The protocol: To achieve self-assembly, each sample was dispersed in aqueous solution under sonication (Branson Ultrasonic, working frequency […] at room temperature) for 30 min. Thereafter, the sample was allowed to undergo self-assembly by keeping it undisturbed for another 30 min. The size and surface zeta potential of the self-assembled nanoparticles were analyzed using a Brookhaven NanoBrook (Holtsville, NY, USA) Omni particle size and zeta potential analyzer, respectively.

A further data set deals with HCT116 cells. Nature of the data set: CellTiter-Blue cell viability assay, HCT116. The following applies: Homo sapiens, HCT-116, 24 h incubation. Format: cell-based. The procedure:
(§1) The human non-small cell lung carcinoma cell lines A549 (ATCC CCL-185) were maintained in RPMI 1640 medium containing 9% bovine calf serum, penicillin, and streptomycin at 37 °C, 5% CO2. For all experiments, cells were seeded and allowed to attach overnight. The medium was then aspirated and replaced with that containing polyamine PG analogs at the indicated concentrations. Cells were incubated for the times indicated at 37 °C, 5% CO2. The HCT 116 (ATCC CCL-247) human colorectal carcinoma cell lines were grown in McCoy’s 5 A medium (Thermo Fischer Scientific, Waltham, MA, USA), supplemented with 10% FBS at 37 °C with 5% CO2 in a humidified chamber.
(§2) The cytotoxicity of the HPG analogs was evaluated in HCT116 and A549 cells by the Promega CellTiter Blue Cell viability assay. The cells were seeded in 96-well plates at a density of four thousand cells/well 24 h before the polyamine treatment. The original medium was replaced with serial dilutions of the PG analogs in a cell culture medium and incubated for another 24 h. The mixture of 100 μL cell culture medium and 20 μL CellTiter Blue reagent was added into each well after the removal of the media with polyamines. After 2 h of incubation, the fluorescence intensity [FI] was measured at λex/λem = 560/590 nm by a microplate reader (Molecular Devices, San Jose, CA, USA). The relative cell viability (%) was calculated as [FI]treated/[FI]untreated × 100. Polyamine concentration, causing a 50% decrease in the cell viability, was defined as IC50 and auto-calculated in GraphPad Prism 9.0.0 (Prism 9, San Diego, CA, USA) with the dose–response analysis.

The subject of a further data set is A549 cells. In words: CellTiter-Blue cell viability assay, A549. Type of data set: cell-based. The following applies: Homo sapiens, 24 h incubation. The protocol: as §1, §2
Background: The colour change of resazurin is a common sign of viable cells or microbes.

Data set [2] in a line: TEM imaging of self-assembled nanoparticles. Format: physicochemical. The protocol: A 10 µL volume of nanoparticle dispersion was meticulously placed on a plasma-treated copper grid (carbon-coated). After 5 min, the excess volume of nanoparticles was absorbed by a regular filter paper. The grid was then stained with 2% phosphotungstic acid (6 µL) for 1 min, and, similarly, the excess staining solution was absorbed by a regular filter paper. The grid was then allowed to dry in air for another 5 min. The image was captured under an FEI-Tecnai G2 transmission electron microscope (Hillsboro, OR, USA) at 80 kV, equipped with an AMT digital imaging system (Woburn, MA, USA).

For the next data set, the system named is colon cancer cells. On the set-up: method as in PMID 19487545. As to conditions: ref [10]; cited from earlier work.
For data set [3], the system named is small (NCI H82 and H69) and non-small (NCI A549 and H157) lung cancer cells. More on the design: method as in PMID 18301893. The following applies: ref [9]; cited from earlier work.
A further data set has as its system A549 xenograft. On the set-up: method as in PMID 17464296, PMID 18301893, PMID 19487545. The following applies: in vivo A549 xenograft model; ref [1],[9],[10]; cited from earlier work.
For data set [4], the target named is T1, purified recombinant human SMOX protein (Homo sapiens, UniProt Q9NWM0). In words: SMOX activity assay (luminol-based chemiluminescence). As to conditions: for IC50: purified recombinant human SMOX, pH 8.0, 37 °C; for fold activity compared to MDL72527, SMOX: ratio of IC50 values. Format: biochemical. The procedure:
SMOX activity was measured using a chemiluminescent enzyme-based assay, detecting the formation of H2O2 in the presence of HPG analogs as the substrate, as described. To measure the activity of these polyamines against SMOX, the enzyme (300 ng) in 0.083 M glycine buffer (pH 8.0) and the inhibitor (0–250 µM) were added to the luminol-HRP master mix and incubated at 37 °C for 2 min. PG was then added to the reaction mixture at a final concentration of 250 µM, vortexed for 3 s, and chemiluminescence was integrated over 40 s. Data were averaged and normalized to the blank reaction (no inhibitor) as % SMOX activity. Inactivated SMOX served as a negative control and was accounted for in the calculations.

Data set [5] has as its target T1, purified recombinant human SMOX protein. More on the design: method as in PMID 33173604. As to conditions: purified enzyme, reference inhibitor, ref [21], cited from earlier work.

T1 sequence (Q9NWM0 whole entry): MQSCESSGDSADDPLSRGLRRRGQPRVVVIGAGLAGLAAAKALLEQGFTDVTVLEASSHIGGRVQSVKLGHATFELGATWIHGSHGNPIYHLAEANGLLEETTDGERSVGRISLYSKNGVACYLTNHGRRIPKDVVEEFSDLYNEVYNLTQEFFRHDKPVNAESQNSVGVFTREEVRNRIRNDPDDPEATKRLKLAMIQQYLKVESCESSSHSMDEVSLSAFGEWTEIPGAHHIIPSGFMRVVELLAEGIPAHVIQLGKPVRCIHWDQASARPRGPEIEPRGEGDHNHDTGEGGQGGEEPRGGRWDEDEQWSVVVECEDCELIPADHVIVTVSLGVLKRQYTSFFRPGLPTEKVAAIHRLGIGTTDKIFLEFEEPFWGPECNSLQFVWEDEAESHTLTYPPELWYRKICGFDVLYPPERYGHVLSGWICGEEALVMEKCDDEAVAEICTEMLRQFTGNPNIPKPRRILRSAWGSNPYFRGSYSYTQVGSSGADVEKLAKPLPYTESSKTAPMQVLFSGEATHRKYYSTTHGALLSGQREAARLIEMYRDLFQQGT

For `CCCCNCCCNC/C=C\CNCCCNCCCC` [HPG-3, (Z)-N^1,N^1′-(but-2-ene-1,4-diyl)bis(N^3-butylpropane-1,3-diamine)], in data set [1], the PDI came out at 0.064, the “Particle Size” value was found to be 186 ± 3 nm and the “Zeta Potential” value is reported as 24 mV. Besides, in the data set with HCT116 cells, it took 8 µM to reach half-maximal inhibition (IC50). The compound further returned a concentration for half-maximal inhibition (IC50) with A549 cells greater than 10 µM.

Regarding `CCCCCNCCCNC/C=C\CNCCCNCCCCC` [HPG-4, (Z)-N^1,N^1′-(but-2-ene-1,4-diyl)bis(N^3-pentylpropane-1,3-diamine)], in [1], the PDI is 0.15; the “Particle Size” value is 174 nm and 174 ± 3 nm; the “Zeta Potential” value is given as 15 mV. The “average size obtained from TEM” value in data set [2] worked out at 6 nm. The same compound returned an IC50 with HCT116 cells greater than 10 µM. This compound also showed an IC50 in the data set with A549 cells of 10 µM.

As for `CCNCCCNC/C=C\CNCCCNCC` [PG11047, (Z)-N^1,N^1′-(but-2-ene-1,4-diyl)bis(N^3-ethylpropane-1,3-diamine)], the IC50 in the data set with HCT116 cells is 8 µM; in the data set with A549 cells, greater than 10 µM. The “anticancer activity in colon cancer cells” value with colon cancer cells is “broad spectrum of anticancer activity”. Also, in [3], the “growth inhibition of lung cancer cells in vitro” value is on record as “inhibits the growth”. For the same compound, in the data set on A549 xenograft, the “progression of established tumors” value is recorded as “significantly delay the progression of established tumors”.

`CCCNCCCNC/C=C\CNCCCNCCC` [HPG-2, (Z)-N^1,N^1′-(but-2-ene-1,4-diyl)bis(N^3-propylpropane-1,3-diamine)]: in [1], the PDI is on record as 0.21, the “Particle Size” value is recorded as 173 ± 7 nm and the “Zeta Potential” value is 27 mV. Further, the “Particle Size” value in data set [1] (listed as HPG2) is “around 173 nm”. The compound further gave an IC50 in the data set on HCT116 cells of less than 1 µM. This compound also displayed an IC50 in the data set with A549 cells of less than 1 µM.

With `CCCCCCCCNCCCNC/C=C\CNCCCNCCCCCCCC` [HPG-7, (Z)-N^1,N^1′-(but-2-ene-1,4-diyl)bis(N^3-octylpropane-1,3-diamine)], in data set [1], the PDI is reported as 0.13, the “Particle Size” value amounted to 318 ± 8 nm and the “Zeta Potential” value is recorded as 11 mV. In addition, the “average size obtained from TEM” value in data set [2] is on record as 30 nm. The IC50 with HCT116 cells is 1 µM. Also, in data set [4], the IC50 is less than 10 µM and the “fold activity compared to MDL72527, SMOX” value is “around nine-fold more active than MDL 72,527”. In the data set on A549 cells, the IC50 is less than 1 µM.

On to `CCCCCCCNCCCNC/C=C\CNCCCNCCCCCCC` [HPG-6, (Z)-N^1,N^1′-(but-2-ene-1,4-diyl)bis(N^3-heptylpropane-1,3-diamine)], for which, in data set [1], the PDI is given as 0.17; the “Particle Size” value is 225 nm and 225 ± 6 nm; the “Zeta Potential” value turned out to be 22 mV. In [2], the “average size obtained from TEM” value turned out to be 8 nm. In the data set with HCT116 cells, half-maximal inhibition (IC50) was put at 3 µM. Further, the IC50 in data set [4] came to 30 µM. In the data set on A549 cells, this compound yielded an IC50 of 3 µM.

Consider `CCCCCCCCCNCCCNC/C=C\CNCCCNCCCCCCCCC` [HPG-8, (Z)-N^1,N^1′-(but-2-ene-1,4-diyl)bis(N^3-nonylpropane-1,3-diamine)], for which the PDI in data set [1] is given as 0.17. Besides, the “Zeta Potential” value in [1] turned out to be 17 mV. Also, the IC50 was less than 1 µM in the data set on HCT116 cells, less than 10 µM in data set [4] and 7 µM in the data set with A549 cells. For the same compound, the “fold activity compared to MDL72527, SMOX” value in data set [4] is “around nine-fold more active than MDL 72,527”.

In [1], `CCCCCCNCCCNC/C=C\CNCCCNCCCCCC` [HPG-5, (Z)-N^1,N^1′-(but-2-ene-1,4-diyl)bis(N^3-hexylpropane-1,3-diamine)] returned a PDI of 0.23. Moreover, the “Particle Size” value in data set [1] turned out to be 158 ± 4 nm. For the same compound, the “Zeta Potential” value in data set [1] stood at 16 mV. Further, the IC50 with HCT116 cells amounted to 8 µM; in data set [4], 90 µM; in the data set on A549 cells, 7 µM.

`C=C=CCNCCCCNCC=C=C` [MDL72527]: the 50% inhibitory concentration (IC50) is 90 µM in [5] and roughly 90 µM in [5] (listed as MDL 72,527).
